Measured values taken from publication PMC7140498, “Predicting liver cytosol stability of small molecules” (Journal of Cheminformatics, 2020).

Test: Metabolic stability assay (substrate depletion) in mouse liver cytosol fractions
Conditions: external validation, sheet Mouse, left compound
Method: (§1) Our assay (384-well format) consisted of two parts; a robotic system for incubation and sample clean up and an integrated LC/MS method to calculate the percent remaining of parent compound. Briefly, each reaction mixture (110 μL) consisted of a test compound (1 μM) and either human or mouse cytosol fractions (2 mg/mL) in phosphate buffer (100 mM) at pH 7.4. Samples were incubated in 384-well plates at 37 °C for 0, 5, 10, 15, 30 and 60 min. Sample analysis and t1/2 calculations were performed using a previously described method [15]. […] A set of control compounds for low and high cytosolic stability were routinely run in each plate.

| Compound | t1/2 [min] (Left) |
| --- | --- |
| CN1c2cc(C(=O)Nc3ccc(Cl)cc3)ccc2C(=O)N2CCCCCC21 (stereo not drawn) | 63.37 min |
| CN(C)c1nc2c(c(=O)[nH]1)CCN(Cc1ccc(Cl)cc1)CC2 | 114.48 min |
| CCN1c2cc(C(=O)Nc3ccc(Cl)cc3)ccc2C(=O)N2CCCCC21 (stereo not drawn) | 25.75 min |
| FC(F)(F)c1ccc2nc([C@H]3CCN(Cc4ccc(Cl)cc4)C3)[nH]c2c1 | 56.67 min |
| O=C(Nc1ccc(-c2nnc3n2CCCC3)cc1)c1ccc(Cl)cc1 | 117.12 min |
| O=C1[C@H]2CN(Cc3ccc(Cl)cc3)C[C@H]2C(=O)N1Cc1ccc2c(c1)OCO2 | 66.66 min |
| CN1c2cc(C(=O)Nc3ccc(Cl)cc3)ccc2C(=O)N2CCCCC21 (stereo not drawn) | 83.39 min |
| O=C(Nc1cccc(-c2nnc3n2CCCC3)c1)c1ccc(Cl)cc1 | 56.47 min |
| OCC1(CN2CCCC2)CCN(Cc2ccc(Cl)cc2)CC1 [OCC1(CN2CCCC2)CCN(Cc2ccc(Cl)cc2)CC1] | 54.48 min |
| Cc1noc(-c2nc(-c3ccc(Cl)cc3)no2)n1 [Cc1noc(-c2nc(-c3ccc(Cl)cc3)no2)n1] | 15.6 min |
| O=C1[C@H]2CN(Cc3ccc(Cl)cc3)C[C@H]2C(=O)N1CCc1ccccc1 | 47.51 min |
| COc1ccc(CN2C[C@H]3CN(Cc4ccc(Cl)cc4)CCN3C2=O)cc1 | 82.24 min |
| CN1C(=O)CO[C@H]2CN(Cc3ccc(Cl)cc3)C[C@H]21 | 116.11 min |
| CCOc1cc(=O)n2c(c1C(=O)Nc1ccc(Cl)cc1)CCCC2 | 94.08 min |
| Cc1cccc(-c2noc([C@@H]3C[C@@H](O)CN3Cc3ccc(Cl)cc3)n2)c1 | 23.64 min |
| CCN1c2cc(C(=O)Nc3ccc(Cl)cc3)ccc2C(=O)N2CCCCCC21 (stereo not drawn) | 56.1 min |
| CN(Cc1cccnc1)c1nc2c(c(=O)[nH]1)CCN(Cc1ccc(Cl)cc1)CC2 | 74.11 min |

Same assay, conditions: male, CD-1, mouse, cytosol, pH 7.4, t1/2 (mean ± SD) (Mouse cytosol), control compounds, 17 plates, 1 μM, 2 mg/mL cytosol, pH 7.4, 37 °C

| Compound | half-life at 1 μM |
| --- | --- |
| Cc1cc(=O)n(-c2ccccc2)n1C [Antipyrine, reference compound] | > 2 h |

Same assay, conditions: male, CD-1, mouse, cytosol, pH 7.4, t1/2 category (Mouse cytosol), control compounds, 17 plates

| Compound | half-life at 1 μM |
| --- | --- |
| Cc1cc(=O)n(-c2ccccc2)n1C [Antipyrine, reference compound] | > 0.5 h |

Same assay, conditions: male, CD-1, mouse, liver cytosol fractions, pH 7.4, t1/2 [min] (Right), external validation, sheet Mouse, right compound

| half-life at 1 μM | Compound |
| --- | --- |
| 1.43 h | O=C1NC2(CCN(C(=O)c3ccc(Cl)c(F)c3)CC2)CC1c1ccccc1 (stereo not drawn) |
| 0.621 h | O=C1[C@H]2CN(Cc3ccc(Cl)c(F)c3)C[C@H]2C(=O)N1CCc1ccccc1 |
| 1.34 h | CCOc1cc(=O)n2c(c1C(=O)Nc1ccc(Cl)c(F)c1)CCCC2 |
| > 2 h | COCC1CN(Cc2ccc(Cl)c(F)c2)CC12CCNCC2 (stereo not drawn) [COCC1CN(Cc2ccc(Cl)c(F)c2)CC12CCNCC2] |
| > 2 h | O=C1OCC2(CCN(Cc3cc[nH]n3)C2)N1CCN1CCOCC1 (stereo not drawn) [O=C1OCC2(CCN(Cc3cc[nH]n3)C2)N1CCN1CCOCC1] |
| 0.412 h | CCN1c2cc(C(=O)Nc3ccc(Cl)c(F)c3)ccc2C(=O)N2CCCCC21 (stereo not drawn) |
| 1.47 h | COc1cc(=O)n2c(c1C(=O)Nc1ccc(Cl)c(F)c1)CCCC2 |
| > 2 h | O=C(Nc1cccc(-c2nnc3n2CCCC3)c1)c1cc[nH]n1 [O=C(Nc1cccc(-c2nnc3n2CCCC3)c1)c1cc[nH]n1] |
| 1.36 h | COCC1CN(C(C)=O)CC12CCN(Cc1ccc(Cl)c(F)c1)CC2 (stereo not drawn) |
| > 2 h | COc1cccc(C(=O)NCC2CCCN(Cc3cc[nH]n3)C2)c1OC (stereo not drawn) |
| 1.54 h | O=c1[nH]c(N2CCOCC2)nc2c1CCN(Cc1ccc(Cl)c(F)c1)CC2 |
| 0.904 h | CCN1c2cc(C(=O)Nc3ccc(Cl)c(F)c3)ccc2C(=O)N2CCCCCC21 (stereo not drawn) |
| > 2 h | CN(C)c1nc2c(c(=O)[nH]1)CCN(Cc1ccc(Cl)c(F)c1)CC2 |
| 0.383 h | CN1c2cc(C(=O)Nc3ccc(Cl)c(F)c3)ccc2C(=O)N2CCCCCC21 (stereo not drawn) |
| 0.921 h | O=C1[C@H]2CN(Cc3ccc(Cl)c(F)c3)C[C@H]2C(=O)N1Cc1ccc2c(c1)OCO2 |
| > 2 h | CN1CCN(c2nc3c(c(=O)[nH]2)CCN(Cc2ccc(Cl)c(F)c2)CC3)CC1 |
| 0.524 h | CN1c2cc(C(=O)Nc3ccc(Cl)c(F)c3)ccc2C(=O)N2CCCCC21 (stereo not drawn) |

| Compound | half-life at 1 μM |
| --- | --- |
| OCC1(CN2CCCC2)CCN(Cc2ccc(Cl)c(F)c2)CC1 [OCC1(CN2CCCC2)CCN(Cc2ccc(Cl)c(F)c2)CC1] | 1.21 h |
| O=C(Nc1ccc(-c2nnc3n2CCCC3)cc1)c1cc[nH]n1 [O=C(Nc1ccc(-c2nnc3n2CCCC3)cc1)c1cc[nH]n1] | > 2 h |
| CN(C1CCOCC1)C1CCN(C(=O)c2cc[nH]n2)CC1 [CN(C1CCOCC1)C1CCN(C(=O)c2cc[nH]n2)CC1] | > 2 h |

Test: not given
Conditions: human, cytosol

| t1/2 [min] (Left) | Compound |
| --- | --- |
| 17.3 min | O=C(c1ccc(-c2ncc3cnc(-c4cccc(F)c4)cn23)cc1)N1CCc2cccnc21 |
| > 120 min | O=c1cc(N2CCOCC2)oc2c(-c3cccc(F)c3)nccc12 [O=c1cc(N2CCOCC2)oc2c(-c3cccc(F)c3)nccc12] |

Test: not given
Set-up: method as in PMID 21385103
Conditions: clinical trials terminated; cited from earlier work

| Compound | levels of parent compound in human plasma |
| --- | --- |
| CC(C)n1nc(-c2cnc(N)nc2-c2ccccc2)ccc1=O [FK3453] | abnormally low levels |

Test: Metabolic stability assay (substrate depletion) in human liver cytosol fractions
Conditions: both, human, cytosol, pH 7.4, t1/2 (mean ± SD) (Human cytosol), control compounds, 17 plates, 1 μM, 2 mg/mL cytosol, pH 7.4, 37 °C
Method: as §1

| Compound | half-life at 1 μM |
| --- | --- |
| Cc1cc(=O)n(-c2ccccc2)n1C [Antipyrine, reference compound] | > 2 h |

Same assay, conditions: both, human, cytosol, pH 7.4, t1/2 category (Human cytosol), control compounds, 17 plates

| Compound | half-life at 1 μM |
| --- | --- |
| Cc1cc(=O)n(-c2ccccc2)n1C [Antipyrine, reference compound] | > 0.5 h |

Same assay, conditions: both, human, liver cytosol fractions, pH 7.4, t1/2 [min] (Left), external validation, sheet Human, left compound

| half-life at 1 μM | Compound |
| --- | --- |
| > 2 h | CN1c2cc(C(=O)Nc3ccc(C#N)cc3)ccc2C(=O)N2CCCCC21 (stereo not drawn) |

Same assay, conditions: both, human, liver cytosol fractions, pH 7.4, t1/2 [min] (Right), external validation, sheet Human, right compound

| half-life at 1 μM | Compound |
| --- | --- |
| 1.86 h | COc1cccc(-c2cn3c(n2)N(C(=O)c2ccoc2)CCC3)c1 |
| > 2 h | COc1cccc(-c2cn3c(n2)N(C(=O)c2cccs2)CCC3)c1 |
| > 2 h | COc1cccc(CN2CC[C@H](c3nc4ccccc4[nH]3)C2)c1 |
| > 2 h | CNC(=O)[C@@H]1CN(C(=O)c2cccc(OC)c2)C[C@H]1COC |

| Compound | half-life at 1 μM |
| --- | --- |
| COc1ccc(CN2CCC3(COc4ccccc4C(=O)N3)C2)cc1 (stereo not drawn) [COc1ccc(CN2CCC3(COc4ccccc4C(=O)N3)C2)cc1] | 0.578 h |
| COc1ccc(CN2CCC(N3Cc4cccn4C3=O)CC2)cc1 [COc1ccc(CN2CCC(N3Cc4cccn4C3=O)CC2)cc1] | > 2 h |

Same assay, conditions: external validation, sheet Human, left compound

| Compound | t1/2 [min] (Left) |
| --- | --- |
| N#Cc1cccc(CN2CCOC[C@H](O)C2)c1 [N#Cc1cccc(CN2CCOC[C@H](O)C2)c1] | 51.1 min |
| O=C(c1cccs1)N1CCC(Oc2cccc(F)c2)C1 (stereo not drawn) [O=C(c1cccs1)N1CCC(Oc2cccc(F)c2)C1] | 17.4 min |
| Fc1cccc(-c2cnc(Nc3cncnc3)c3c2CCO3)c1 [Fc1cccc(-c2cnc(Nc3cncnc3)c3c2CCO3)c1] | 9.6 min |
| Cc1noc(C)c1-c1cc(-c2cccc(F)c2)cn2cncc12 [Cc1noc(C)c1-c1cc(-c2cccc(F)c2)cn2cncc12] | 90 min |
| O=c1c2nc(Nc3cccc(F)c3)ccc2ncn1-c1cccnc1 [O=c1c2nc(Nc3cccc(F)c3)ccc2ncn1-c1cccnc1] | 96.4 min |

Test: not given
Set-up: method as in PMID 20421447
Conditions: development discontinued in 2008; cited from earlier work

| Compound | toxicity reported in development |
| --- | --- |
| Cn1cc(-c2ccc3nnc(Sc4ccc5ncccc5c4)n3n2)cn1 [SGX523] | dose-limiting renal toxicity |
